Patent publication US6660879B2, “3-aryl-2-hydroxypropionic acid derivative I” (AstraZeneca AB, priority 1998, dated 2003)

Tested on: obese diabetic mice of the Umeå ob/ob strain
Assay: Biological activity in obese diabetic ob/ob mice (plasma glucose, insulin, triglycerides; weight gain)
Assay type: in vivo
Details: gavage once daily for 7 days
Method: The biological activity of the compound of the invention was tested in obese diabetic mice of the Umea ob/ob strain. Groups of mice received the test compound by gavage once daily for 7 days. On the last day of the experiment the animals were anesthetized 2h after dose in a non-fed state and blood was collected from an incised artery. Plasma was analyzed for concentration of glucose, insulin and triglycerides. A group of untreated obese diabetic mice of the same age served as control. The weight of the mice was measured before and after the experiment and the obtained weight gain was compared to the weight gain of the control animals. The individual values for glucose, insulin and triglyceride levels of the mice from the test group were expressed as the percent rage of the corresponding values from the control group.
The desired “therapeutic effect” was calculated as the average percent reduction of the three variables glucose, insulin and triglycerides below the levels in the control animals. The therapeutic effect of the tested compounds according to the invention was compared to the same effect in the prior art compound troglitazone, administrered by gavage in the oral dose of 100 μmol/kg for 7 days.

weight gain compared to the weight gain of the control animals (weight measured before and after the experiment): without undesirable weight gain
SMILES: CCO[C@@H](Cc1ccc(OCCc2ccc(OS(C)(=O)=O)cc2)cc1)C(=O)O [Example 1, (S)-2-Ethoxy-3-[4-(2-{4-methanesulfonyloxyphenyl}ethoxy)phenyl]propanoic acid]
therapeutic effect (average percent reduction of glucose, insulin and triglycerides below the levels in the control animals) (plasma 2h after last dose, non-fed, compared to troglitazone given in the same oral dose (100 μmol/kg for 7 days)): superior effects
